According to article PMC12518996 (Frontiers in Pharmacology, 2025):

Key:
human hepatocytes = experiment: Metabolic profiling in human hepatocytes; assay type: in vitro ADME; conditions: trazodone 8 μM, 120 min incubation
Description: (§1) For hepatocyte incubations, pooled cryopreserved human hepatocytes (20-donor mix, Celsis) and male Sprague-Dawley rat hepatocytes (12-donor mix, Bioreclamation IVT) were used. Each incubation contained 1 million viable cells/mL in Celsis InVitro HI medium, at a pH of 7.4, and was conducted at 37 °C for 120 min under gentle agitation to facilitate metabolic activity.
(§2) Processed supernatants (4 µL) were injected onto a Thermo U3000 UHPLC system coupled to a Thermo Q-Exactive Orbitrap MS equipped with a PDA detector. […] The Orbitrap operated in positive ESI mode (sheath/aux/sweep N2 55/8/4 units; capillary 3.0 kV, 370 °C; auxiliary heater 550 °C) with full-scan m/z 100–1,000 at 35,000 FWHM (m/z 200) and DDI-MS/MS at 17,500 FWHM (7 Hz acquisition; IT […]; HCD 40 eV). External mass calibration and a 5 ppm extraction window were applied, and data were processed in Xcalibur 3.0.63/Compound Discoverer 1.0.

CYP2C11 = molecular target: T1, CYP2C11 (Rattus norvegicus, UniProt P08683); experiment: Metabolite formation by recombinant rat CYP2C11; assay type: in vitro ADME; conditions: trazodone 4 μM; NADPH; 37 °C, 40 min
T1 sequence (P08683 1-500): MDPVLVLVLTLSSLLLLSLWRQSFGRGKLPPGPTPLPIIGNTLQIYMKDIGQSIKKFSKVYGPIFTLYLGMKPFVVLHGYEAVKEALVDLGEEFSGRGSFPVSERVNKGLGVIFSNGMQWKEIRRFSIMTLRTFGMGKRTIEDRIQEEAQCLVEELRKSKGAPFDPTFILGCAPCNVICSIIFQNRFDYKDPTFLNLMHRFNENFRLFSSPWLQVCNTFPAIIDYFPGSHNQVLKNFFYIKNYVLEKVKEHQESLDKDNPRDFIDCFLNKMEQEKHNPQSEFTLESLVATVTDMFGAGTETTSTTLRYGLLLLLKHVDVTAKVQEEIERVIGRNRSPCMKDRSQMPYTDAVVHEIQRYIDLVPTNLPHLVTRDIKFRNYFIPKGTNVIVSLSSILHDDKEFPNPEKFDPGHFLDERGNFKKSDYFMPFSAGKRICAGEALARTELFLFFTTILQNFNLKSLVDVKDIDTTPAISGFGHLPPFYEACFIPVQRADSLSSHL
Description: (§3) To confirm the role of individual CYP isoforms in metabolizing trazodone, recombinant human and rat CYP enzymes were employed in separate incubations. […] Each reaction was terminated with acetonitrile, centrifuged, and the supernatant was analyzed by identical UHPLC-Orbitrap setup outlined in §2.2, allowing direct comparison of metabolite spectra across all in-vitro systems. […] This procedure helped confirm the contributions of individual isoforms to specific biotransformation reactions.

human liver microsomes = experiment: Metabolic profiling in human liver microsomes; assay type: in vitro ADME; conditions: trazodone 8 μM, 40 min incubation
Description: (§4) The metabolic profile of trazodone was determined using in vitro incubations with rat and human liver microsomes, hepatocytes, and rat plasma samples. […] Microsomal incubations were conducted with pooled human and rat liver microsomes (Celsis IVT) using 0.6 mg/mL microsomal protein in 0.1 M phosphate buffer (pH 7.4). NADPH (1 mM) was added as a cofactor to initiate phase I metabolic reactions. Reactions were performed at 37 °C for 40 min with gentle shaking.
as §2

CYP2E1 [1] = molecular target: CYP2E1 (Homo sapiens, UniProt P05181); experiment: Metabolite formation by recombinant human CYP2E1; assay type: in vitro ADME; conditions: trazodone 4 μM; NADPH; 37 °C, 40 min
Description: as §3

rat liver microsomes = experiment: Metabolic profiling in rat liver microsomes; assay type: in vitro ADME; conditions: trazodone 8 μM, 40 min incubation
Description: as §4, §2

CYP3A5 = CYP3A5 (Homo sapiens, UniProt P20815); experiment: Metabolite formation by recombinant human CYP3A5; assay type: in vitro ADME; conditions: trazodone 4 μM; NADPH; 37 °C, 40 min
Description: Each reaction was terminated with acetonitrile, centrifuged, and the supernatant was analyzed by identical UHPLC-Orbitrap setup outlined in §2.2, allowing direct comparison of metabolite spectra across all in-vitro systems.

rat hepatocytes = experiment: Metabolic profiling in rat hepatocytes; assay type: in vitro ADME; conditions: trazodone 8 μM, 120 min incubation
Description: as §1, §2

CYP2D18 = experiment: Metabolite formation by recombinant rat CYP2D18; assay type: in vitro ADME; conditions: trazodone 4 μM; NADPH; 37 °C, 40 min
Description: as §3

CYP2E1 [2] = molecular target: CYP2E1 (Mus musculus, UniProt Q05421); experiment: biochemical
CYP1A2 [3] = molecular target: T2, CYP1A2 (Mus musculus, UniProt P00186); experiment: Inhibition of CYP1A2 in CD1 mouse hepatocytes (phenacetin probe)
T2 sequence (P00186 1-513): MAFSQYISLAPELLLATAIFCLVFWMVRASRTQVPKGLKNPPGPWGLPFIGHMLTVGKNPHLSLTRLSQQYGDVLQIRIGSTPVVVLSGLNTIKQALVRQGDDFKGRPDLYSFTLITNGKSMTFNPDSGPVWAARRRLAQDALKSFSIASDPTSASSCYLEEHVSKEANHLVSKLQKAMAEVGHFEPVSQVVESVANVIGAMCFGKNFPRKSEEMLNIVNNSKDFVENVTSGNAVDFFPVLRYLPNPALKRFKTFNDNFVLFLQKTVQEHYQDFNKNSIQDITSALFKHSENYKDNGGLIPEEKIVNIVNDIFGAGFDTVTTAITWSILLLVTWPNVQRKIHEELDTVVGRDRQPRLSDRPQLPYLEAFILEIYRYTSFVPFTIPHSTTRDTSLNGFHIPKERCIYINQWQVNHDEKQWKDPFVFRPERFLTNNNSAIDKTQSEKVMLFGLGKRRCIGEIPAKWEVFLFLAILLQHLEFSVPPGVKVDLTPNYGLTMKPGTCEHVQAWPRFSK

CYP1A2 [4] = molecular target: T3, CYP1A2 (Homo sapiens, UniProt P05177); conditions: human hepatocytes; probe phenacetin; 0.1-100 μM
T3 sequence (P05177 1-516): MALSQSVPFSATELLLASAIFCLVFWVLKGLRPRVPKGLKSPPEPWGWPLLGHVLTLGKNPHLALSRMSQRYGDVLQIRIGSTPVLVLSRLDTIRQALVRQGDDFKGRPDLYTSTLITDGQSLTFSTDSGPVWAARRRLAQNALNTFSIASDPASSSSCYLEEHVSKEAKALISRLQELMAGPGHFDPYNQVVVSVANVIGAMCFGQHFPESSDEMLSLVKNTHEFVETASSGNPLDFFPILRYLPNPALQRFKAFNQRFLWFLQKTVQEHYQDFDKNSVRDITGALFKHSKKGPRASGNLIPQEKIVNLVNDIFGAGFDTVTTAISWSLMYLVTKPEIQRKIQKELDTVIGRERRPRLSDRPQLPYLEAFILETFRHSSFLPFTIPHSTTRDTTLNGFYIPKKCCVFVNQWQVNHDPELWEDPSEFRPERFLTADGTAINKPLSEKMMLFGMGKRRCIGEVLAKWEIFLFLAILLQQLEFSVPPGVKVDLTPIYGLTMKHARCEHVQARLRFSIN

Sequence of CYP2E1 (Homo sapiens, UniProt P05181) (P05181 whole entry): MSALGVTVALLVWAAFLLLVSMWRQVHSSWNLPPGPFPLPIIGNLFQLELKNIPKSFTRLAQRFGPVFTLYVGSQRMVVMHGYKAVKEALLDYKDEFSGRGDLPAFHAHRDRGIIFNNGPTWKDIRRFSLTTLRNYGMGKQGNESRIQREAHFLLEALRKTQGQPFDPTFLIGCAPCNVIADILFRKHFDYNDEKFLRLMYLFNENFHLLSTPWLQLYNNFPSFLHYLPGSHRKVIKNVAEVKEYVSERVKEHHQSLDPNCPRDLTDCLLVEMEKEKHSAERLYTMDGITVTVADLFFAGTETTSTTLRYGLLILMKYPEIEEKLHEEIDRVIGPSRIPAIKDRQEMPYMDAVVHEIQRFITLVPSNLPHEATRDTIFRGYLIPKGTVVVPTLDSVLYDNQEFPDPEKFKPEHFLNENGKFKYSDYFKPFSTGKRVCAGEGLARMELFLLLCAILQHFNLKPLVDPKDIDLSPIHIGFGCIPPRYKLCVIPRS
Sequence of CYP3A5 (P20815 whole entry): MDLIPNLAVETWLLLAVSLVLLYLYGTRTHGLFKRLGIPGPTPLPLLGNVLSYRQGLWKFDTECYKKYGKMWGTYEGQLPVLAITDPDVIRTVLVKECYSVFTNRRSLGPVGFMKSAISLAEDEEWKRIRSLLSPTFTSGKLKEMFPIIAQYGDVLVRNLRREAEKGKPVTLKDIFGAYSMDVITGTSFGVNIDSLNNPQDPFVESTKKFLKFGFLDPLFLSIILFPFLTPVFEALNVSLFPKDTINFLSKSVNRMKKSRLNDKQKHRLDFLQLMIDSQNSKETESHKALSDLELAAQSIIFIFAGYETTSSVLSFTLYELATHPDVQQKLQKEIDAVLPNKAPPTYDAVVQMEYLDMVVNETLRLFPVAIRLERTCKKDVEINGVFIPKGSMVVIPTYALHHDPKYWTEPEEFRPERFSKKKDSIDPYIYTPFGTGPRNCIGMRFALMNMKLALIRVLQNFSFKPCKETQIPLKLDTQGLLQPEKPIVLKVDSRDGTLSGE
Sequence of CYP2E1 (Mus musculus, UniProt Q05421) (Q05421 whole entry): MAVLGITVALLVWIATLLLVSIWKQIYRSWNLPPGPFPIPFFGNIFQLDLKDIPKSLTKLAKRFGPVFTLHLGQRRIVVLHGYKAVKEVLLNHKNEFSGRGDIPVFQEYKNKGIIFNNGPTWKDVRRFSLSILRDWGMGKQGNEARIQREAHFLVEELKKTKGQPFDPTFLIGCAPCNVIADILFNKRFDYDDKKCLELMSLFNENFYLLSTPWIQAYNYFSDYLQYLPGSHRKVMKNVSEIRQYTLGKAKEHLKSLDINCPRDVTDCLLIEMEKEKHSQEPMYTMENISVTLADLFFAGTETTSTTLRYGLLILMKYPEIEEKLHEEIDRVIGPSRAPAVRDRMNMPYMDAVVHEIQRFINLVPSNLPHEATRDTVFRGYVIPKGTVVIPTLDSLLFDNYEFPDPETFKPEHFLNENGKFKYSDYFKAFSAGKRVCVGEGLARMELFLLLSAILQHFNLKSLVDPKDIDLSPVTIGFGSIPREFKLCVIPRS

Compound	relative abundance (% of total LC-MS signal), Hepatocytes Human (%) (human hepatocytes)	Formation of trazodone phase I metabolite by recombinant rat CYP2C11 (as LC/MS peak areas) (CYP2C11)	relative abundance (% of total LC-MS signal), Liver microsomes Human (%) (human liver microsomes)	Formation of trazodone phase I metabolite by recombinant human CYP2E1 (as LC/MS peak areas) (CYP2E1 [1])	relative abundance (% of total LC-MS signal), Liver microsomes Rat (%) (rat liver microsomes)	Formation of trazodone phase I metabolite by recombinant human CYP3A5 (as LC/MS peak areas) (CYP3A5)	relative abundance (% of total LC-MS signal), Hepatocytes Rat (%) (rat hepatocytes)	Formation of trazodone phase I metabolite by recombinant rat CYP2D18 (as LC/MS peak areas) (CYP2D18)	IC50 (CYP2E1 [2]) [µM]	IC50 (CYP1A2 [3]) [µM]	IC50 value (µM), CYP1A2 (CYP1A2 [4])
O=c1n(CCCN2CCNCC2)nc2ccccn12 [Metabolite M15]	0.2	1210	0.3	0	0.8	3343	0.7	134			
Clc1cccc(N2CCNCC2)c1 [mCPP, m-chlorophenylpiperazine]		6920		16		16847		1962	1.88	> 100	inactive
O=c1n(CCCO)nc2ccccn12 [Metabolite M20]	0.9	743	2.9	0	1.4	108	0.9	240			
